Experiments:
CAPRIN1–APP interaction = CAPRIN1–APP interaction (Homo sapiens, UniProt P05067+Q14444); test: In vitro binding assay, recombinant CAPRIN1 and APP (reciprocal co-IP); parameters: recombinant human CAPRIN1 (full length, 100 ng) was added; purchased Biolegend; settings: concentration-dependent
Method: When CAPRIN1 was used as a bait, recombinant CAPRIN1 (200 ng) was mixed with anti‐CAPRIN1 antibodies (1 µg) in IP buffer (25 mM Tris, 150 mM NaCl, 5% Glycerol, and 1% Triton X‐100 at pH 7.4) overnight at 4°C, followed by the addition of Protein‐G agarose beads for 4 h at 4°C. CAPRIN1 conjugated beads were then washed with binding buffer (20 mM HEPES, 100 mM NaCl, 0.01% Triron X‐100, and 5% Glycerol at pH 7.25) before the addition of recombinant human APP (prey) for 1 h at 4°C. Beads were washed and eluted with Laemmli buffer with boiling, followed by Western blotting. When APP was used as a bait, biotin‐conjugated APP antibody (1 µg; 4G8, Biolegend) was pre‐mixed with recombinant APP (100 ng, Biolegend) in pulldown buffer (0.1% NP‐40, 50 mM Tris, 150 mM NaCl, 0.2 mM EDTA, 100 mM KCl, 1 mM MgCl2, 0.2 mM CaCl2, and 10% glycerol) overnight at 4°C, followed by addition of 0.5 mg of Streptavidin magnetic beads (Pierce) for 1 h at 4°C. After washing the beads, recombinant human CAPRIN1 (full length, 100 ng) was added together with dose‐dependent 0043 in the binding buffer for 1 h at 4°C. Beads were washed and eluted with Laemmli buffer with boiling, followed by Western blotting.

[1] = molecular target: T1, APP695–CAPRIN1 interaction (Homo sapiens, UniProt P05067+Q14444); test: SPR, APP695 onto immobilized CAPRIN1 with 0152; type: binding; settings: equimolar 0152 vs no compound
T1 construct: 10xHis‐MBP‐APP695 (full‐length) alone was loaded; 10xHis (N); MBP (followed by a 3C site) (N); 10xHis (followed by a 3C site) (N); made in house; host or cells: Tni (Hi5) insect cells, baculovirus
Method: SPR experiments were conducted to investigate the interaction between APP695 and CAPRIN1 proteins using a Biacore T200 instrument (Cytiva). Both proteins were expressed in Tni (Hi5) insect cells and purified to homogeneity via tandem affinity and ion‐exchange. Protein purity and integrity were confirmed by SDS‐PAGE and size‐exclusion chromatography prior to analysis. All experiments were performed in a running buffer consisting of 50 mM HEPES at […], 100 mM KCl, 10% glycerol, and 0.01% (v/v) Tween‐20 supplemented with 0.1% (w/v) Sarkosyl (pH 7.4). APP695 was serially diluted in running buffer to final concentrations of 15, 5, 1, and 0.3 µM. Chip Preparation: A CM5 sensor chip (Cytiva) was activated using a 1:1 (v/v) mixture of 0.1 M N‐hydroxysuccinimide (NHS) and 0.1 M N‐ethyl‐N′‐(3‐dimethylaminopropyl) carbodiimide (EDC) to generate reactive ester groups. CAPRIN1 was diluted to 50 µg/mL in 10 mM Hepes‐KOH buffer (pH 6.0) and immobilized on the chip surface via standard amine coupling to achieve immobilization. Unreacted sites were blocked with 1 M ethanolamine‐HCl (pH 8.5). A reference flow cell was prepared similarly but without protein immobilization to control for non‐specific binding and bulk refractive index changes. Binding assay: Binding interactions were measured at 25°C with a flow rate of 30 µL/min. APP695 solutions were injected over the CAPRIN1‐immobilized and reference flow cells for 45 s (association phase), followed by a 240 s dissociation phase with running buffer alone. Internal control injections for one concentration of APP695 were performed to ensure reproducibility for every round of the experiment. […] APP (1–300) was also tested for binding to CAPRIN1 under identical conditions. To assess potential non‐specific interactions, 0043 and 0152 were tested for binding to APP‐695 captured on a CM5 chip using a steady‐state model. Data analysis: Sensograms were processed using Biacore T200 Evaluation Software. […]

T1 sequence (P05067 18-695 isoform P05067-4 limits assumed): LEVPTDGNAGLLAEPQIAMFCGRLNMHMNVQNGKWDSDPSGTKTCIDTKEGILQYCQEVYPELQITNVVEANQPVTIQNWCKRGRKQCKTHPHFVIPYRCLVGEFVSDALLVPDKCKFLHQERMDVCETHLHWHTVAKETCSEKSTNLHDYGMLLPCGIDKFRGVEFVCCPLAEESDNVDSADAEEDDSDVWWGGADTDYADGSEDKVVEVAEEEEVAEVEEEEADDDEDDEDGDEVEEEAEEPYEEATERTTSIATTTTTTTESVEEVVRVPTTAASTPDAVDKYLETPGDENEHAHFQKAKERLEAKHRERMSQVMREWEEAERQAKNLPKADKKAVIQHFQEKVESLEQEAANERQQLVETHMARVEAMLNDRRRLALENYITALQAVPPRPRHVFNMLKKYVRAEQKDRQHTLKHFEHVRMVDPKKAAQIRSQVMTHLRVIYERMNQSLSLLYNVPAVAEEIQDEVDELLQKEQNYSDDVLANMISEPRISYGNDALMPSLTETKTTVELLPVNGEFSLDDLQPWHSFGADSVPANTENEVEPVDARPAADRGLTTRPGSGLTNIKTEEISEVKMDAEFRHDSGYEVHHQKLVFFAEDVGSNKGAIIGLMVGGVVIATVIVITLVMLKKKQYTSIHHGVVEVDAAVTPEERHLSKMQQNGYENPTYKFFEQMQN
T1 sequence (Q14444 whole entry): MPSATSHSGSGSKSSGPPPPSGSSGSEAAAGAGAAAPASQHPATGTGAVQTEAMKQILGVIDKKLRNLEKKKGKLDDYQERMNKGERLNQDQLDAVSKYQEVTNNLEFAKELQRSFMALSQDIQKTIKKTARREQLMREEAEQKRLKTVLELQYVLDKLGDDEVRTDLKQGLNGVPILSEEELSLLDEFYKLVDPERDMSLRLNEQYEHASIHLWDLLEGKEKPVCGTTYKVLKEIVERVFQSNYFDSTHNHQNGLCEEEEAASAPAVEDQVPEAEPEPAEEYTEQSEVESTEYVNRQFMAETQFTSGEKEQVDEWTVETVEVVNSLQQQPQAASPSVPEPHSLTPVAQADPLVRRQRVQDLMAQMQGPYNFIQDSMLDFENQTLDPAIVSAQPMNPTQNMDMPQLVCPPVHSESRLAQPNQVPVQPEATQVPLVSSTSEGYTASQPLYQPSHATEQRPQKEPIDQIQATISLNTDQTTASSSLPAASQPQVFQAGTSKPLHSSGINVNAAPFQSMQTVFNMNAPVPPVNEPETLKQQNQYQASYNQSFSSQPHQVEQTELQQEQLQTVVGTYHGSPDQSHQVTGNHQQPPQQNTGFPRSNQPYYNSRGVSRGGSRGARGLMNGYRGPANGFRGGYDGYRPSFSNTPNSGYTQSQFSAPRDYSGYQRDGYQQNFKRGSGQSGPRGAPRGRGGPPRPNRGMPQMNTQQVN
CAPRIN1–APP interaction, sequence (Q14444 whole entry): as above
CAPRIN1–APP interaction, sequence (P05067 18-770): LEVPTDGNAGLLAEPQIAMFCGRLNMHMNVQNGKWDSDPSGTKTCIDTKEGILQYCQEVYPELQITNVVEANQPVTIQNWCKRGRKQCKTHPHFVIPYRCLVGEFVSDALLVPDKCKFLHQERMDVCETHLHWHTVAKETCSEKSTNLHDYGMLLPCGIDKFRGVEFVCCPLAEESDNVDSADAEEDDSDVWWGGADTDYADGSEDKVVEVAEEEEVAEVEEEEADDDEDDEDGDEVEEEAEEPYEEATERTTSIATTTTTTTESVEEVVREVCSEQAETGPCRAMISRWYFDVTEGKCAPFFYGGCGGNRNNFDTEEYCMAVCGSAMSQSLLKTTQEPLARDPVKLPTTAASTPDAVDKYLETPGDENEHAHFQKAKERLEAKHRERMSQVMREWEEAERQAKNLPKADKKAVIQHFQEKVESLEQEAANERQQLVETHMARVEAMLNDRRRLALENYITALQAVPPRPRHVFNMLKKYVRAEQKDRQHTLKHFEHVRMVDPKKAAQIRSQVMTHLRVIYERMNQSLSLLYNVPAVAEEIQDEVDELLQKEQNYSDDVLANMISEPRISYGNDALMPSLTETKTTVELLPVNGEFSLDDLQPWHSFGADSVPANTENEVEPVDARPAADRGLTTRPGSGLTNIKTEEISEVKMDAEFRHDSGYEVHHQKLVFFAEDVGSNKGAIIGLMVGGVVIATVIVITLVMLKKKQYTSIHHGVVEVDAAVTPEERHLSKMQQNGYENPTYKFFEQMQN

SMILES	Interaction of recombinant CAPRIN1 and APP (reciprocal co-IP) (CAPRIN1–APP interaction)	Decrease of dissociation rate constant (Koff) of APP695–CAPRIN1 [1]	Increase of association rate constant (Kon) of APP695–CAPRIN1 [1]	Reduction of equilibrium dissociation constant (KD) of APP695–CAPRIN1 [1]
N#Cc1cccc(NC(=O)Nc2nc3ccc(C(=O)N4CCOCC4)cc3s2)c1 [compound 0043]	enhanced the interaction between CAPRIN1 and APP			
COc1cccc(NC(=O)Nc2nc3ccc(C(=O)N4CCOCC4)cc3s2)c1 [compound 0152]		10 fold	3.5 fold	36 fold

From article PMC13534789, “Molecular Glue Degraders Enhance CAPRIN1‐Dependent Lysosomal Degradation of APP and Reduce Amyloid β in Alzheimer's Disease” (Advanced Science, 2026)
